Drawing on US20260285816A1, “Piperazinyl-Modified Quinazolinyl-Aryl Urea Derivative, And Preparation Method And Use Thereof” (Guangxi Normal University, priority 2025, published 2026), this text covers IC50 for six molecules.

Broadly, the IC50 is the concentration at which inhibition is half-maximal.

Common to all, as to type: cell-based, human
One assay has as its system Hep G2 cells. Nature of the assay: CCK-8 anti-proliferative assay, Hep G2. The note with it: Homo sapiens, HepG2, co-incubated 48 h, read-out: Anti-proliferative activity (IC50 ± standard deviation) Hep G2. Put shortly:
(§1)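 Absorbance at 450 nm after CCK-8 labelling (1–4 h, varying by cell line) gave inhibition relative to untreated control, from which IC50 values were derived. Compounds were applied at final concentrations of 1 to 30 μM in triplicate wells once cultures reached 70% confluency, with co-incubation for designated durations.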
On the technique in general: Tetrazolium dyes change colour on reduction, which living cells bring about.

The next assay has as its system PANC-1 cells. Nature of the assay: CCK-8 anti-proliferative assay, PANC-1. The note with it: Homo sapiens, PANC-1, co-incubated 48 h, read-out: Anti-proliferative activity (IC50 ± standard deviation) PANC-1. In outline: as §1
For the next assay, the system named is BxPC-3 cells. Nature of the assay: CCK-8 anti-proliferative assay, BxPC-3. The note with it: Homo sapiens, BXPC-3, co-incubated 48 h, read-out: Anti-proliferative activity (IC50 ± standard deviation) BxPC-3. In outline: as §1
Another assay concerns T24 cells. Nature of the assay: CCK-8 anti-proliferative assay, T24. The note with it: Homo sapiens, T-24, co-incubated 48 h, read-out: Anti-proliferative activity (IC50 ± standard deviation) T24. Put shortly:
as §1

The subject of assay [1] is immortalized ureteral epithelial cells (SV-HUC-1). Nature of the assay: CCK-8 anti-proliferative assay, normal cells SV-HUC-1. The note with it: Homo sapiens, SV-HUC1, normal cells, co-incubated 48 h, read-out: Anti-proliferative activity (IC50 ± standard deviation) SV-HUC-1. In outline:
(§2)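 Cells seeded at 5,000/well and grown at 37° C., 5% CO2 to 70% confluency, then treated with compound at final 1, 2, 4, 6, 8, 12, 16, 24 and 30 μM in triplicate.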

The next assay has as its system SK-OV-3 cells. Nature of the assay: CCK-8 anti-proliferative assay, SK-OV-3. The note with it: Homo sapiens, SK-OV-3, co-incubated 48 h, read-out: Anti-proliferative activity (IC50 ± standard deviation) SK-OV-3. In outline:
as §2

The next assay has as its system UM-UC-3 cells. Nature of the assay: CCK-8 anti-proliferative assay, UM-UC-3. The note with it: Homo sapiens, UMUC3, co-incubated 48 h, read-out: Anti-proliferative activity (IC50 ± standard deviation) UM-UC-3. Put shortly: as §2
The subject of another assay is MG-63 cells. Nature of the assay: CCK-8 anti-proliferative assay, MG-63. Particulars: Homo sapiens, MG-63, co-incubated 48 h, read-out: Anti-proliferative activity (IC50 ± standard deviation) MG-63. In outline: as §1
The subject of another assay is 143B cells. Nature of the assay: CCK-8 anti-proliferative assay, 143B. The note with it: Homo sapiens, 143B, co-incubated 48 h, read-out: Anti-proliferative activity (IC50 ± standard deviation) 143B. In outline: as §1
A further assay has as its system J82 cells. Nature of the assay: CCK-8 anti-proliferative assay, J82. Particulars: Homo sapiens, J82, co-incubated 48 h, read-out: Anti-proliferative activity (IC50 ± standard deviation) J82. In outline: as §2
The next assay has as its system A549 cells. Nature of the assay: CCK-8 anti-proliferative assay, A549. The note with it: Homo sapiens, A549, co-incubated 48 h, read-out: Anti-proliferative activity (IC50 ± standard deviation) A549. Put shortly: as §2
For assay [2], the system named is embryonic lung fibroblasts (WI-38). Nature of the assay: CCK-8 anti-proliferative assay, normal cells WI-38. The note with it: Homo sapiens, read-out: Anti-proliferative activity (IC50 ± standard deviation) WI-38. Put shortly: as §1
For another assay, the system named is 5637 cells. Nature of the assay: CCK-8 anti-proliferative assay, 5637. Particulars: Homo sapiens, co-incubated 48 h, read-out: Anti-proliferative activity (IC50 ± standard deviation) 5637. In outline: as §2
A further assay concerns MCF-7 cells. Nature of the assay: CCK-8 anti-proliferative assay, MCF-7. Particulars: Homo sapiens, MCF7, co-incubated 48 h, read-out: Anti-proliferative activity (IC50 ± standard deviation) MCF-7. Put shortly:
as §2

The next assay has as its system HeLa cells. Nature of the assay: CCK-8 anti-proliferative assay, HeLa. Particulars: Homo sapiens, HeLa, co-incubated 48 h, read-out: Anti-proliferative activity (IC50 ± standard deviation) HeLa. In outline:
as §2

Where [3] appears, read: WI-38, Table 9, co-incubated 48 h.
Setting [4] is: WI-38, Table 13, co-incubated 48 h.

Molecules are shown by their SMILES. Like-named read-outs stand apart in the source and are kept apart here.

Take `COc1cc2ncnc(NCc3cccc(NC(=O)Nc4ccc(F)cc4)c3)c2cc1OCCCCCCN1CCN(CCN2CCOCC2)CC1` [Compound 8-1l, N-(3-(((7-methoxy-6-((6-(4-(2-morpholinoethyl)piperazin-1-yl)hexyl)oxy)quinazolin-4-yl)amino)methyl)phenyl)-N′-(4-fluorophenyl)urea]: the IC50 is 7.29 ± 0.54 µM in the assay on Hep G2 cells (Table 8); above 30 µM with PANC-1 cells (Table 7); 13 ± 0.97 µM with BxPC-3 cells (Table 7); 10.4 ± 0.92 µM in the assay with T24 cells (Table 6); 15.9 ± 0.86 µM in assay [1] (Table 9); 7.72 ± 0.59 µM in the assay with SK-OV-3 cells (Table 9). Further, the IC50 in the assay with UM-UC-3 cells (Table 6) came out at 16.8 ± 0.88 µM; in the assay with MG-63 cells (Table 7), 7.03 ± 0.48 µM; in the assay with 143B cells (Table 7), 9.03 ± 0.61 µM; in the assay with J82 cells (Table 6), 6.85 ± 0.57 µM; in the assay on A549 cells (Table 8), 21.4 ± 1.96 µM; in assay [2] (setting [3]), 22.8 ± 0.94 µM. Further, the figures for the IC50 with 5637 cells (Table 6), in the assay on MCF-7 cells (Table 8) and in the assay with HeLa cells (Table 8) were 15.8 ± 0.95 µM, 15.2 ± 0.93 µM and 21.3 ± 1.24 µM, respectively.
On to `COc1cc2ncnc(NCc3cccc(NC(=O)NCc4ccccc4)c3)c2cc1OCCCCCCN1CCC(CN2CCN(c3ccccn3)CC2)CC1` [Compound 8-2y, N-(3-(((7-methoxy-6-((6-(4-((4-(pyridin-2-yl)piperazin-1-yl)methyl)piperidin-1-yl)hexyl)oxy)quinazolin-4-yl)amino)methyl)phenyl)-N′-benzylurea], for which the IC50 in the assay on Hep G2 cells (Table 12) is 5.92 ± 0.66 µM; with PANC-1 cells (Table 11) it was 7.36 ± 0.42 µM; with BxPC-3 cells (Table 11), 11 ± 0.85 µM; in the assay with T24 cells (Table 10), 4.07 ± 0.19 µM; in assay [1] (Table 13) it was 8.96 ± 0.67 µM; with SK-OV-3 cells (Table 12) it was 6.23 ± 0.56 µM. Moreover, the IC50 stood at 3.92 ± 0.24 µM in the assay on UM-UC-3 cells (Table 10); 5.91 ± 0.46 µM in the assay with MG-63 cells (Table 11); 6.74 ± 0.52 µM with 143B cells (Table 11); 4.13 ± 0.32 µM with J82 cells (Table 10); 7.01 ± 0.62 µM in the assay with A549 cells (Table 13); 9.89 ± 0.23 µM in assay [2] (setting [4]). Further, the figures for the IC50 in the assay with 5637 cells (Table 10), in the assay with MCF-7 cells (Table 12) and with HeLa cells (Table 12) were 4.92 ± 0.31 µM, 5.71 ± 0.54 µM and 5.02 ± 0.49 µM, respectively.
Consider `COc1cc2ncnc(NCc3cccc(NC(=O)Nc4c(Cl)cc(Cl)cc4Cl)c3)c2cc1OCCCCCCN1CCC(CN2CCN(c3ccccn3)CC2)CC1` [Compound 8-2s, N-(3-(((7-methoxy-6-((6-(4-((4-(pyridin-2-yl)piperazin-1-yl)methyl)piperidin-1-yl)hexyl)oxy)quinazolin-4-yl)amino)methyl)phenyl)-N′-(2,4,6-trichlorophenyl)urea], for which the IC50 was 4.91 ± 0.55 µM in the assay with Hep G2 cells (Table 12); 10.4 ± 0.62 µM in the assay on PANC-1 cells (Table 11); 9.72 ± 0.95 µM in the assay on BxPC-3 cells (Table 11); 7.73 ± 0.47 µM with T24 cells (Table 10); 8.36 ± 1.62 µM in assay [1] (Table 13); 6.02 ± 0.39 µM with SK-OV-3 cells (Table 12). Moreover, the IC50 in the assay on UM-UC-3 cells (Table 10) turned out to be 10 ± 0.73 µM; in the assay on MG-63 cells (Table 11) it was 11 ± 0.97 µM; with 143B cells (Table 11), 5.94 ± 0.43 µM; with J82 cells (Table 10), 4.62 ± 0.33 µM; in the assay on A549 cells (Table 13) it was 7.32 ± 0.85 µM; in assay [2] (setting [4]), 11.5 ± 0.62 µM. Besides, the figures for the IC50 in the assay with 5637 cells (Table 10), in the assay on MCF-7 cells (Table 12) and in the assay with HeLa cells (Table 12) were 4.87 ± 0.29 µM, 5.88 ± 0.57 µM and 7.99 ± 0.68 µM, respectively.
As to `COc1ccccc1NC(=O)Nc1cccc(CNc2ncnc3cc(OC)c(OCCCCCCN4CCC(CN5CCN(c6ccccn6)CC5)CC4)cc23)c1` [Compound 8-2k, N-(3-(((7-methoxy-6-((6-(4-((4-(pyridin-2-yl)piperazin-1-yl)methyl)piperidin-1-yl)hexyl)oxy)quinazolin-4-yl)amino)methyl)phenyl)-N′-(2-methoxyphenyl)urea], the IC50 in the assay with Hep G2 cells (Table 12) worked out at 4.99 ± 0.47 µM; in the assay with PANC-1 cells (Table 11) it was 15.9 ± 0.94 µM; in the assay on BxPC-3 cells (Table 11), 7.11 ± 0.79 µM; in the assay on T24 cells (Table 10) it was 5.34 ± 0.27 µM; in assay [1] (Table 13), 13 ± 0.88 µM; in the assay on SK-OV-3 cells (Table 12) it was 6.32 ± 0.56 µM. The IC50 in the assay with UM-UC-3 cells (Table 10) stood at 7.19 ± 0.52 µM; in the assay on MG-63 cells (Table 11) it was 6.38 ± 0.43 µM; with 143B cells (Table 11), 6.08 ± 0.37 µM; in the assay on J82 cells (Table 10), 5.68 ± 0.42 µM; in the assay on A549 cells (Table 13) it was 14.2 ± 1.31 µM; in assay [2] (setting [4]) it was 11.2 ± 0.65 µM. Besides, the half-inhibitory concentration (IC50) in the assay with 5637 cells (Table 10) turned out to be 5.63 ± 0.38 µM; with MCF-7 cells (Table 12), 6.68 ± 0.79 µM; in the assay with HeLa cells (Table 12), 5.51 ± 0.49 µM.
With `COc1cc2ncnc(NCc3cccc(NC(=O)NC4CCCCC4)c3)c2cc1OCCCCCCN1CCN(CCN2CCOCC2)CC1` [Compound 8-1v, N-(3-(((7-Methoxy-6-((6-(4-(2-morpholinoethyl)piperazin-1-yl)hexyl)oxy)quinazolin-4-yl)amino)methyl)phenyl)-N′-cyclohexylurea], the IC50 is 10.6 ± 0.94 µM with Hep G2 cells (Table 8); above 30 µM in the assay on PANC-1 cells (Table 7); 16.8 ± 1.25 µM in the assay with BxPC-3 cells (Table 7); 15.8 ± 0.89 µM in the assay with T24 cells (Table 6); above 30 µM in [1] (Table 9); above 30 µM in the assay on SK-OV-3 cells (Table 9). Also, the IC50 is 19 ± 0.34 µM in the assay with UM-UC-3 cells (Table 6); 15.6 ± 0.92 µM in the assay on MG-63 cells (Table 7); 22.4 ± 1.63 µM with 143B cells (Table 7); 13.9 ± 0.95 µM in the assay with J82 cells (Table 6); 16.5 ± 0.77 µM in the assay with A549 cells (Table 8); 15.4 ± 0.88 µM in [2] (setting [3]). Moreover, the IC50 in the assay with 5637 cells (Table 6) is 11.2 ± 0.97 µM; in the assay with MCF-7 cells (Table 8) it was above 30 µM; in the assay on HeLa cells (Table 8) it was above 30 µM.
For the molecule `COc1cc2ncnc(NCc3cccc(NC(=O)Nc4cc(C(F)(F)F)cc(C(F)(F)F)c4)c3)c2cc1OCCCCCCN1CCN(CCN2CCOCC2)CC1` [Compound 8-1s, N-(3-(((7-methoxy-6-((6-(4-(2-morpholinoethyl)piperazin-1-yl)hexyl)oxy)quinazolin-4-yl)amino)methyl)phenyl)-N′-(3,5-bis(trifluoromethyl)phenyl)urea], the IC50 came out at 4.55 ± 0.47 µM with Hep G2 cells (Table 8); 12.7 ± 0.71 µM in the assay with PANC-1 cells (Table 7); 7.31 ± 0.76 µM with BxPC-3 cells (Table 7); 6.95 ± 0.51 µM with T24 cells (Table 6); 7.31 ± 0.35 µM in assay [1] (Table 9); 7.29 ± 0.66 µM in the assay on SK-OV-3 cells (Table 9). For the same molecule, the IC50 in the assay on UM-UC-3 cells (Table 6) stood at 6.72 ± 0.53 µM; with MG-63 cells (Table 7) it was 7.17 ± 0.52 µM; with 143B cells (Table 7) it was 4.95 ± 0.69 µM; in the assay on J82 cells (Table 6) it was 5.63 ± 0.54 µM; in the assay on A549 cells (Table 8) it was 12.6 ± 0.48 µM; in [2] (setting [3]) it was 7.71 ± 0.54 µM. Besides, the values for the IC50 with 5637 cells (Table 6), in the assay on MCF-7 cells (Table 8) and in the assay on HeLa cells (Table 8) were 5.93 ± 0.44 µM, 10.3 ± 0.68 µM and 6.81 ± 0.45 µM, respectively.
